US9346809B2 (LEO PHARMA A/S, priority 2009, dated 2016)
Where two headings read alike, the source gives them in different places.

What was measured:
Format in all cases: biochemical
[1] = biological target: T1, JAK2 (catalytic domain, His-tag) (Homo sapiens, UniProt O60674); test: JAK kinase assay (HTRF, phosphorylation of TK substrate-biotin), JAK2; settings: ATP at Km (4 μM)
T1 construct: All four purified enzymes contain only the catalytic domain; His (N); purchased Carna Biosciences, Inc; host or cells: baculovirus expression system
How it was run: (§1)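 Baculovirus-expressed catalytic domains phosphorylated 1 μM TK substrate-biotin in 50 mM Hepes pH 7.0 with ATP at Km (JAK1 7 μM, JAK2 4 μM, JAK3 2 μM, TYK2 13 μM) for 20-30 min at RT. EDTA/KF stop, streptavidin-XL665 plus cryptate antibody overnight; HTRF signal gave EC50.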

[2] = biological target: T2, TYK2 (aa 871-1187, catalytic domain, GST-tag) (Homo sapiens, UniProt P29597); test: JAK kinase assay (HTRF, phosphorylation of TK substrate-biotin), TYK2; settings: ATP at Km (13 μM)
T2 construct: JAK1 (aa 850-1154) and TYK2 (aa 871-1187) are expressed with an N-terminally fused GST-tag; GST (N); purchased Carna Biosciences, Inc; host or cells: baculovirus expression system
T2 sequence (P29597 871-1187): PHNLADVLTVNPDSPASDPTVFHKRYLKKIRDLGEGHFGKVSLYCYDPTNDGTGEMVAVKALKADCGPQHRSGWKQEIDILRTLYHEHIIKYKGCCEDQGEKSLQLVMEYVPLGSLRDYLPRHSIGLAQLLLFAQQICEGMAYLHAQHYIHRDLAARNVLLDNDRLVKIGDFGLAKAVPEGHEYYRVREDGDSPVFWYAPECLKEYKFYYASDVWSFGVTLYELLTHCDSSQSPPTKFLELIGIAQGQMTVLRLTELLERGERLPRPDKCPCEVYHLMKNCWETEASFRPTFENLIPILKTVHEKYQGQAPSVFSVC
How it was run: as §1

[3] = biological target: T3, JAK3 (catalytic domain, His-tag) (Homo sapiens, UniProt P52333); test: JAK kinase assay (HTRF, phosphorylation of TK substrate-biotin), JAK3; settings: ATP at Km (2 μM)
T3 construct: All four purified enzymes contain only the catalytic domain; His (N); purchased Carna Biosciences, Inc; host or cells: baculovirus expression system
How it was run: as §1

[4] = biological target: T4, JAK1 (aa 850-1154, catalytic domain, GST-tag) (Homo sapiens, UniProt P23458); test: JAK kinase assay (HTRF, phosphorylation of TK substrate-biotin), JAK1; settings: ATP at Km (7 μM)
T4 construct: JAK1 (aa 850-1154) and TYK2 (aa 871-1187) are expressed with an N-terminally fused GST-tag; GST (N); purchased Carna Biosciences, Inc; host or cells: baculovirus expression system
How it was run: as §1

[5] = HTRF assay, read-out: JAK2 kinase inhibitory activity (EC50)
[6] = HTRF assay, read-out: TYK2 kinase inhibitory activity (EC50)
[7] = HTRF assay, read-out: JAK3 kinase inhibitory activity (EC50)
[8] = HTRF assay, read-out: JAK1 kinase inhibitory activity (EC50)
[9] = HTRF assay, read-out: JAK2 kinase inhibitory activity (EC50 indicator)
[10] = HTRF assay, read-out: TYK2 kinase inhibitory activity (EC50 indicator)
[11] = HTRF assay, read-out: JAK3 kinase inhibitory activity (EC50 indicator)
[12] = HTRF assay, read-out: JAK1 kinase inhibitory activity (EC50 indicator)
[13] = read-out: JAK2 kinase inhibitory activity (EC50 indicator)
[14] = read-out: TYK2 kinase inhibitory activity (EC50 indicator)
[15] = read-out: JAK3 kinase inhibitory activity (EC50 indicator)
[16] = read-out: JAK1 kinase inhibitory activity (EC50 indicator)

T4 sequence (P23458 850-1154): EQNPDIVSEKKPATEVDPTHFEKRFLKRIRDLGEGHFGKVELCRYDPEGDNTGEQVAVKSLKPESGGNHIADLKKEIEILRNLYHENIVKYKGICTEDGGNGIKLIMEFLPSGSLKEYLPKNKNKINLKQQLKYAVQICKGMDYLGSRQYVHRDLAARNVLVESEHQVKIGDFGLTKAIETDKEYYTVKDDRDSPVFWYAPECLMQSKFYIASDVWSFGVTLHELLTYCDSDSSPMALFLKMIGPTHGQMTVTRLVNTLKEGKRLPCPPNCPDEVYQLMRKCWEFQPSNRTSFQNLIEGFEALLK
T3 sequence (P52333 822-1111 limits assumed): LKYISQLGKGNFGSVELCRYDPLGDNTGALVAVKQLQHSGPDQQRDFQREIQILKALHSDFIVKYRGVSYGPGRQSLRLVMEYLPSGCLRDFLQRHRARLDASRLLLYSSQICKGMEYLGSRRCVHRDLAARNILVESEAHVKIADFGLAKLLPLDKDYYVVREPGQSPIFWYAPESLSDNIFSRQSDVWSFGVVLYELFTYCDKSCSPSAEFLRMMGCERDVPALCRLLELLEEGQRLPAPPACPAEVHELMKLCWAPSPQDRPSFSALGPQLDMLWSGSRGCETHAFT
T1 sequence (O60674 849-1124 limits assumed): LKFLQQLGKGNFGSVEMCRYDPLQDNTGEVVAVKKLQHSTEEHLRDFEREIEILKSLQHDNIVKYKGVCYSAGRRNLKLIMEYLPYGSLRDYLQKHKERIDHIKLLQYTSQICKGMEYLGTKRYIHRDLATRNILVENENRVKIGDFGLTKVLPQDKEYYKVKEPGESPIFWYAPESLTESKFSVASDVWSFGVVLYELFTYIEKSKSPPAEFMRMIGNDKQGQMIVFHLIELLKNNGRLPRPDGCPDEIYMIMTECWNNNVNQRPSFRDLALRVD

Compound	EC50 [1, 9] [µM]	EC50 [2, 10] [µM]	EC50 [3, 11] [µM]	EC50 [4, 12] [µM]	EC50 [1, 13] [µM]	EC50 [2, 14] [µM]	EC50 [3, 15] [µM]	EC50 [4, 16] [µM]	further results
CN(C1CCCCC1)S(=O)(=O)N1CCN(c2ncnc3[nH]ccc23)CC12CC2 [Example 460, 7-(7H-Pyrrolo[2,3-d]pyrimidin-4-yl)-4,7-diaza-spiro[2.5]octane-4-sulfonic acid cyclohexyl-methyl-amide]	–	–	–	–	–	–	–	–	EC50 [1, 5]: < 0.1 µM; EC50 [2, 6]: 0.1 to 0.5 µM; EC50 [3, 7]: 0.1 to 0.5 µM; EC50 [4, 8]: < 0.1 µM
N#CCc1ccc(CC(=O)N2[C@@H]3CC[C@@H]2CN(c2ncnc4[nH]ccc24)C3)cc1 [Example 347, (4-{2-Oxo-2-[3-(7H-pyrrolo[2,3-d]pyrimidin-4-yl)-3,8-diaza-bicyclo[3.2.1]oct-8-yl]-ethyl}-phenyl)-acetonitrile]	0.1 to 0.5	> 0.5	> 0.5	0.1 to 0.5	–	–	–	–	–
N#CCCCC(=O)N1CCN(c2ncnc3[nH]ccc23)CC12CC2 [Example 298, 5-Oxo-5-[7-(7H-pyrrolo[2,3-d]pyrimidin-4-yl)-4,7-diaza-spiro[2.5]oct-4-yl]-pentanenitrile]	< 0.1	0.1 to 0.5	< 0.1	< 0.1	–	–	–	–	–
Cc1c(C(=O)N2[C@H]3CC[C@H]2CN(c2ncnc4[nH]ccc24)C3)sc2ccccc12 [Example 245, (3-Methyl-benzo[b]thiophen-2-yl)-[3-(7H-pyrrolo[2,3-d]pyrimidin-4-yl)-3,8-diaza-bicyclo[3.2.1]oct-8-yl]-methanone]	< 0.1	> 0.5	< 0.1	< 0.1	–	–	–	–	–
O=C(c1ccncc1)N1CCN(c2ccnc3[nH]ccc23)CC12CC2 [Example 224, Pyridin-4-yl-[7-(1H-pyrrolo[2,3-b]pyridin-4-yl)-4,7-diaza-spiro[2.5]oct-4-yl]-methanone]	0.1 to 0.5	> 0.5	> 0.5	0.1 to 0.5	–	–	–	–	–
N#CCOc1ccc(C(=O)N2CCN(c3ncnc4[nH]ccc34)CC23CC3)cc1 [Example 68, {4-[7-(7H-Pyrrolo[2,3-d]pyrimidin-4-yl)-4,7-diaza-spiro[2.5]octane-4-carbonyl]-phenoxy}-acetonitrile]	–	–	–	–	< 0.1	0.1 to 0.5	0.1 to 0.5	< 0.1	–
COCC(=O)N1CCN(c2ncnc3[nH]ccc23)CC12CC2 [Example 443, 2-Methoxy-1-[7-(7H-pyrrolo[2,3-d]pyrimidin-4-yl)-4,7-diaza-spiro[2.5]oct-4-yl]-ethanone]	–	–	–	–	–	–	–	–	EC50 [1, 5]: < 0.1 µM; EC50 [2, 6]: > 0.5 µM; EC50 [3, 7]: > 0.5 µM; EC50 [4, 8]: < 0.1 µM
S=C(NCc1ccccc1)N1[C@@H]2CC[C@H]1CN(c1ncnc3[nH]ccc13)C2 [Example 11, 3-(7H-Pyrrolo[2,3-d]pyrimidin-4-yl)-3,8-diazabicyclo[3.2.1]octane-8-carbothioic acid benzylamide]	–	–	–	–	< 0.1	> 0.5	0.1 to 0.5	< 0.1	–
CC(=O)OCC(=O)Nc1nc(N2CCN(C(=O)Cc3ccc(C#N)cc3)C3(CC3)C2)c2cc[nH]c2n1 [Example 100, Acetic acid (4-{4-[2-(4-cyano-phenyl)-acetyl]-4,7-diaza-spiro[2.5]oct-7-yl}-7H-pyrrolo[2,3-d]pyrimidin-2-ylcarbamoyl)-methyl ester]	–	–	–	–	< 0.1	0.1 to 0.5	< 0.1	< 0.1	–
CN(C)S(=O)(=O)c1ccc(C(=O)N2CCN(c3ncnc4[nH]ccc34)CC23CC3)cc1 [Example 189, N,N-Dimethyl-4-[7-(7H-pyrrolo[2,3-d]pyrimidin-4-yl)-4,7-diaza-spiro[2.5]octane-4-carbonyl]-benzenesulfonamide]	–	–	–	–	< 0.1	0.1 to 0.5	0.1 to 0.5	< 0.1	–
Cc1cc(S(N)(=O)=O)ccc1C(=O)N1CCN(c2ncnc3[nH]ccc23)CC12CC2 [Example 379, 3-Methyl-4-[7-(7H-pyrrolo[2,3-d]pyrimidin-4-yl)-4,7-diaza-spiro[2.5]octane-4-carbonyl]-benzenesulfonamide]	< 0.1	0.1 to 0.5	< 0.1	< 0.1	–	–	–	–	–
CC(C)(C)[S+]([O-])N1CCN(c2ncnc3[nH]ccc23)CC12CC2 (stereo not shown) [Example 449, 4-[4-(2-Methyl-propane-2-sulfinyl)-4,7-diaza-spiro[2.5]oct-7-yl]-7H-pyrrolo[2,3-d]pyrimidine]	–	–	–	–	–	–	–	–	EC50 [1, 5]: 0.1 to 0.5 µM; EC50 [2, 6]: > 0.5 µM; EC50 [3, 7]: > 0.5 µM; EC50 [4, 8]: > 0.5 µM

The next lines start with results.

EC50 [1, 9] [µM]	EC50 [2, 10] [µM]	EC50 [3, 11] [µM]	EC50 [4, 12] [µM]	EC50 [1, 13] [µM]	EC50 [2, 14] [µM]	EC50 [3, 15] [µM]	EC50 [4, 16] [µM]	Compound	further results
< 0.1	< 0.1	< 0.1	< 0.1	–	–	–	–	CNS(=O)(=O)c1csc(C(=O)N2CCN(c3ncnc4[nH]ccc34)CC23CC3)c1 [Example 373, 5-[7-(7H-Pyrrolo[2,3-d]pyrimidin-4-yl)-4,7-diaza-spiro[2.5]octane-4-carbonyl]-thiophene-3-sulfonic acid methylamide]	–
> 0.5	> 0.5	> 0.5	> 0.5	–	–	–	–	COC(=O)c1cc2c(N3CCN(C(=O)CCC#N)C4(CC4)C3)ncnc2[nH]1 [Example 340]	–
< 0.1	> 0.5	< 0.1	< 0.1	–	–	–	–	O=C(c1cccc(OC(F)(F)F)c1)N1[C@@H]2CC[C@@H]1CN(c1ncnc3[nH]ccc13)C2 [Example 244, [3-(7H-Pyrrolo[2,3-d]pyrimidin-4-yl)-3,8-diaza-bicyclo[3.2.1]oct-8-yl]-(3-trifluoromethoxy-phenyl)-methanone]	–
–	–	–	–	< 0.1	< 0.1	< 0.1	< 0.1	Cc1csc(C(=O)N2CCN(c3ncnc4[nH]ccc34)CC23CC3)c1 [Example 62, (4-Methyl-thiophen-2-yl)-[7-(7H-pyrrolo[2,3-d]pyrimidin-4-yl)-4,7-diaza-spiro[2.5]oct-4-yl]-methanone]	–
–	–	–	–	0.1 to 0.5	> 0.5	0.1 to 0.5	0.1 to 0.5	N#Cc1ccc(CC(=O)N2[C@@H]3CC[C@@H]2CN(c2ncnc4[nH]ccc24)C3)cc1 [Example 180, 4-{2-Oxo-2-[3-(7H-pyrrolo[2,3-d]pyrimidin-4-yl)-3,8-diaza-bicyclo[3.2.1]oct-8-yl]-ethyl}-benzonitrile]	–
–	–	–	–	0.1 to 0.5	> 0.5	> 0.5	0.1 to 0.5	CS(=O)(=O)NCCC(=O)N1[C@@H]2CC[C@@H]1CN(c1ncnc3[nH]ccc13)C2 [Example 176, N-{3-Oxo-3-[3-(7H-pyrrolo[2,3-d]pyrimidin-4-yl)-3,8-diaza-bicyclo[3.2.1]oct-8-yl]-propyl}-methanesulfonamide]	–
–	–	–	–	0.1 to 0.5	> 0.5	> 0.5	0.1 to 0.5	O=C(CC(F)(F)F)N1[C@@H]2CC[C@H]1CN(c1ncnc3[nH]ccc13)C2 [Example 40, 3,3,3-Trifluoro-1-[3-(7H-pyrrolo[2,3-d]pyrimidin-4-yl)-3,8-diaza-bicyclo[3.2.1]oct-8-yl]propan-1-one]	–
> 0.5	> 0.5	> 0.5	> 0.5	–	–	–	–	Cc1c[nH]c2ncnc(N3CCN(C(=O)C4(C#N)CC4)C4(CC4)C3)c12 [Example 329, 1-[7-(5-Methyl-7H-pyrrolo[2,3-d]pyrimidin-4-yl)-4,7-diaza-spiro[2.5]octane-4-carbonyl]-cyclopropanecarbonitrile]	–
< 0.1	> 0.5	< 0.1	< 0.1	–	–	–	–	CS(=O)(=O)c1ccc(CC(=O)N2CCN(c3ncnc4[nH]ccc34)CC23CC3)cc1 [Example 420, 2-(4-Methanesulfonyl-phenyl)-1-[7-(7H-pyrrolo[2,3-d]pyrimidin-4-yl)-4,7-diaza-spiro[2.5]oct-4-yl]-ethanone]	–
< 0.1	< 0.1	< 0.1	< 0.1	–	–	–	–	NS(=O)(=O)c1ccc(CCC(=O)N2CCN(c3ncnc4[nH]ccc34)CC23CC3)cc1 [Example 383, 4-{3-Oxo-3-[7-(7H-pyrrolo[2,3-d]pyrimidin-4-yl)-4,7-diaza-spiro[2.5]oct-4-yl]-propyl}-benzenesulfonamide]	–
